Experiment [1] deals with T1, GST-human KRas166 (G12V) GPPNHP (Homo sapiens, UniProt P01116, G12V).
T1 construct: made in house; host or cells: E. coli C41(DE3)
Put plainly: KRas small-molecule screening by SPR (BIACORE T200). The following applies: compound at final concentration of 100 uM; immobilised GST-KRAS166 (G12V) GPPNHP, GST reference channel. Format: binding. The gist of the method:
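E. coli-expressed GST-KRas166 (G12V) was loaded with GPPNHP and captured on an anti-GST CM5 chip at 10,000–15,000 RU, with GST as the reference channel. Compounds were injected at 100 uM in buffer containing 100 mM NaCl, 5 mM MgCl2 and 5% DMSO, with solvent correction. Binding was measured by Biacore T200 SPR against a theoretical Rmax.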
A general note: SPR reads the build-up and loss of mass on a sensor chip optically.

Experiment [2] deals with H358 cells (ATCC CRL-5807). Nature of the experiment: Cell viability assay (CellTiter-Glo), H358 cells. Format: cell-based. As to conditions: Homo sapiens, NCI-H358, 48 h incubation, first value of the cell, read-out: Cell Viability (μM) H358 (concentration that decreases cell viability by 50%). The protocol: (§1) Cells (A549 ATCC CCL-185) are cultured in Dulbecco's Modified Eagle's Medium plus 10% foetal calf serum and 2 mM L-glutamine at 37° C., 5% CO2. Cells are plated onto white clear bottom 96-well plates (5000 cells/well in 200 μl media) and left to adhere overnight at 37° C., 5% CO2. Next day, test compound (1 μl at 200× concentration in 100% DMSO) is added to give final test compound concentration 1× in 0.5% DMSO. After 48 h of incubation at 37° C., 5% CO2, 20 μl CellTiter-Glo reagent (Promega G7572) is added into each well. Plates are incubated at room temperature with shaking for 30 min and then luminescence is read using a PheraStar plate reader. The concentration of compounds that decrease cell viability by 50% is calculated from dose response curves generated using Dotmatics data analysis software.
In the H358 cell assay, cells (ATCC CRL-5807) are cultured in RPM-1640 medium plus 10% foetal calf serum and 2 mM L-glutamine at 37° C., 5% CO2.
On the technique in general: Cellular ATP, detected with luciferase, serves as a proxy for viable cell number.

Experiment [3] relates to DLD1 cells (ATCC CCL-221). Put plainly: Cell viability assay (CellTiter-Glo), DLD1 cells. Format: cell-based. The following applies: Homo sapiens, DLD-1 cells, 48 h incubation, second value of the cell, read-out: Cell Viability (μM) DLD-1 (concentration that decreases cell viability by 50%). The protocol: as §1
In the DLD1 cell assay, cells (ATCC CCL-221) are cultured in RPMI-1640 medium plus 10% foetal calf serum and 2 mM L-glutamine at 37° C., 5% CO2.

These results are taken from patent US11724999B2, “Inhibitors of RAS-effector protein interactions” (Oxford University Innovation Limited, priority 2018, dated 2023).

Regarding `Cc1ccc(COc2ccc3c(c2)O[C@H](CNC(=O)C2CCN(C)CC2)CO3)cc1` [Example 29, 1-Methyl-piperidine-4-carboxylic acid [(R)-7-(4-methyl-benzyloxy)-2,3-dihydro-benzo[1,4]dioxin-2-ylmethyl]-amide], the “SPR Response Units” value in experiment [1] was determined as 37 Response Units. The IC50 stood at 12.5 µM in experiment [2] and 6.8 µM in experiment [3].
On the same counts, the results for `O=C(NCc1ccc(CN2CCNCC2)cc1)C1COc2ccc(OCc3ccccc3)cc2O1` (stereo not drawn) [Example 74, 7-Benzyloxy-2,3-dihydro-benzo[1,4]dioxine-2-carboxylic acid 4-piperazin-1-ylmethyl-benzylamide] are 115 Response Units, 21.3 µM and 16.7 µM.
On to `O=C1CN(C2CCNCC2)C(=O)N1C[C@@H]1COc2ccc(OCc3ccccc3)cc2O1` [Example 79, 3-((R)-7-Benzyloxy-2,3-dihydro-benzo[1,4]dioxin-2-ylmethyl)-1-piperidin-4-yl-imidazolidine-2,4-dione], for which the “SPR Response Units” value in experiment [1] came out at 72 Response Units. In addition, the figures for the IC50 in experiment [2] and in experiment [3] were 50 µM and 9 µM, respectively.
In the same order, the values of `c1ccc(COc2ccc3c(c2)O[C@H](CNC2CCNCC2)CO3)cc1` [Example 45, ((R)-7-Benzyloxy-2,3-dihydro-benzo[1,4]dioxin-2-ylmethyl)-piperidin-4-yl-amine] are 22 Response Units, 26.3 µM and 9.6 µM.
On the same counts, the results for `CN1CCC(C(=O)NC[C@@H]2COc3ccc(OCc4ccc(F)cc4)cc3O2)CC1` [Example 31, 1-Methyl-piperidine-4-carboxylic acid [(R)-7-(4-fluoro-benzyloxy)-2,3-dihydro-benzo[1,4]dioxin-2-ylmethyl]-amide] are 28 Response Units, 18.2 µM and 9.6 µM.
In the same order, the values of `Cc1ccccc1COc1ccc2c(c1)O[C@H](CNC(=O)C1CCN(C)CC1)CO2` [Example 32, 1-Methyl-piperidine-4-carboxylic acid [(R)-7-(2-methyl-benzyloxy)-2,3-dihydro-benzo[1,4]dioxin-2-ylmethyl]-amide] are 37 Response Units, 26.2 µM and 15.9 µM.
For the molecule `Cc1cccc(COc2ccc3c(c2)O[C@H](CNC(=O)C2CCN(C)CC2)CO3)c1` [Example 28, 1-Methyl-piperidine-4-carboxylic acid [(R)-7-(3-methyl-benzyloxy)-2,3-dihydro-benzo[1,4]dioxin-2-ylmethyl]-amide], the “SPR Response Units” value in experiment [1] is 39 Response Units. Also, the IC50 came to 16.6 µM in experiment [2] and 8.2 µM in experiment [3].
In the same order, the values of `CN1CCC2(CC1)NC(=O)N(C[C@@H]1COc3ccc(OCc4ccccc4)cc3O1)C2=O` [Example 77, 3-((R)-7-Benzyloxy-2,3-dihydro-benzo[1,4]dioxin-2-ylmethyl)-8-methyl-1,3,8-triaza-spiro[4.5]decane-2,4-dione] are 49 Response Units, 59 µM and 4 µM.
On the same counts, the results for `CN1CCN(Cc2ccc(C(=O)NC[C@@H]3COc4ccc(OCCc5ccccc5)cc4O3)o2)CC1` [Example 23, 5-(4-Methyl-piperazin-1-ylmethyl)-furan-2-carboxylic acid ((R)-7-phenethyloxy-2,3-dihydro-benzo[1,4]dioxin-2-ylmethyl)-amide] are 86 Response Units, 35 µM and 3.5 µM.
On the same counts, the results for `NCC(=O)N[C@H]1CC[C@@H](NC(=O)C2COc3ccc(OCc4ccccc4)cc3O2)CC1` (stereo partly drawn) [Example 85, 7-Benzyloxy-2,3-dihydro-benzo[1,4]dioxine-2-carboxylic acid [4-(2-amino-acetylamino)-cyclohexyl]-amide] are 64 Response Units, more than 100 µM and 10 µM.
As to `CN1CCN(Cc2cccc(CNC(=O)C3COc4ccc(OCc5ccccc5)cc4O3)c2)CC1` (stereo not drawn) [Example 62, 7-Benzyloxy-2,3-dihydro-benzo[1,4]dioxine-2-carboxylic acid 3-(4-methyl-piperazin-1-ylmethyl)-benzylamide], in experiment [1], the “SPR Response Units” value came out at 93 Response Units. Moreover, the IC50 in experiment [2] amounted to 42 µM; in experiment [3], 7 µM.
On the same counts, the results for `O=C(c1ncco1)N(CC1CCN(Cc2ccccc2)CC1)C[C@@H]1COc2ccc(OCc3ccccc3)cc2O1` [Example 42, Oxazole-2-carboxylic acid ((R)-7-benzyloxy-2,3-dihydro-benzo[1,4]dioxin-2-ylmethyl)-(1-benzyl-piperidin-4-ylmethyl)-amide] are 93 Response Units, 29 µM and 3 µM.
On the same counts, the results for `CN(C)CC(=O)N[C@H]1CC[C@@H](N(Cc2ccn[nH]2)C[C@@H]2COc3ccc(OCc4ccccc4)cc3O2)CC1` [Example 51, N-{4-[((R)-7-Benzyloxy-2,3-dihydro-benzo[1,4]dioxin-2-ylmethyl)-(2H-pyrazol-3-ylmethyl)-amino]-cyclohexyl}-2-dimethylamino-acetamide] are 166 Response Units, 14 µM and 7.3 µM.
On the same counts, the results for `CC(C)(C)OC(=O)NCc1ccc(CN(C[C@@H]2COc3ccc(OCc4ccccc4)cc3O2)C(=O)c2ncco2)cc1` [Example 41, (4-{[((R)-7-Benzyloxy-2,3-dihydro-benzo[1,4]dioxin-2-ylmethyl)-(oxazole-2-carbonyl)-amino]-methyl}-benzyl)-carbamic acid tert-butyl ester] are 7 Response Units, 74 µM and 16 µM.
For the molecule `NCc1ccc(CN(C[C@@H]2COc3ccc(OCc4ccccc4)cc3O2)C(=O)c2ncco2)cc1` [Example 44, Oxazole-2-carboxylic acid (4-aminomethyl-benzyl)-((R)-7-benzyloxy-2,3-dihydro-benzo[1,4]dioxin-2-ylmethyl)-amide], the “SPR Response Units” value in experiment [1] worked out at 221 Response Units. Further, the IC50 in experiment [2] was more than 100 µM; in experiment [3], 9 µM.
As to `O=C(c1ncco1)N(C[C@@H]1COc2ccc(OCc3ccccc3)cc2O1)C1CCN(Cc2ccccc2)CC1` [Example 43, Oxazole-2-carboxylic acid ((R)-7-benzyloxy-2,3-dihydro-benzo[1,4]dioxin-2-ylmethyl)-(1-benzyl-piperidin-4-yl)-amide], the “SPR Response Units” value in experiment [1] is reported as 35 Response Units. In addition, the IC50 was determined as 20.8 µM in experiment [2] and 18.5 µM in experiment [3].
In the same order, the values of `CN1CCC(C(=O)NC[C@@H]2COc3ccc(OCc4ccccc4)cc3O2)CC1` [Example 1, 1-methyl-piperidine-4-carboxylic acid ((R)-7-benzyloxy-2,3-dihydro-benzo[1,4]dioxin-2-ylmethyl)-amide] are 48 Response Units, 61 µM and 13 µM.
On the same counts, the results for `CN1CCC(C(=O)NC[C@@H]2COc3ccc(OCc4cccc(Cl)c4)cc3O2)CC1` [Example 30, 1-Methyl-piperidine-4-carboxylic acid [(R)-7-(3-chloro-benzyloxy)-2,3-dihydro-benzo[1,4]dioxin-2-ylmethyl]-amide] are 64 Response Units, 16.2 µM and 3.9 µM.
In the same order, the values of `CN1CCN(Cc2ccc(C(=O)NC[C@@H]3COc4ccc(OCc5ccccc5)cc4O3)o2)CC1` [Example 2, 5-(4-Methyl-piperazin-1-ylmethyl)-furan-2-carboxylic acid ((R)-7-benzyloxy-2,3-dihydro-benzo[1,4]dioxin-2-ylmethyl)-amide] are 224 Response Units, 43 µM and 10 µM.
With `O=C(NC[C@@H]1COc2ccc(OCc3ccccc3)cc2O1)c1ncco1` [Example 3, Oxazole-2-carboxylic acid ((R)-7-benzyloxy-2,3-dihydro-benzo[1,4]dioxin-2-ylmethyl)-amide], the “SPR Response Units” value in experiment [1] stood at 12 Response Units. The values for the IC50 in experiment [2] and in experiment [3] were more than 100 µM and 20 µM, respectively.
